{
  "source": "patent US20230079687A1",
  "about": "“ALKYLRESORCINOL HOMOLOGUES AS ANTIOXIDANTS” (The Penn State Research Foundation, priority 2021, published 2023)",
  "key": {"[1]": {"assay": "Formation of lipid hydroperoxides in antioxidant-treated crackers during storage", "experimental": "(§1) Based on the concentrations of the individual AR stock solutions previously determined, an appropriate volume, containing 153 μmol of the respective individual AR homologue, was measured into plastic centrifuge tubes to prepare individual AR homologue treatments. A treatment containing a mixture of the individual AR homologues, at their natural abundance in rye bran, was prepared by combining 25.3% of C17:0, 32.0% of C19:0, 22.6% of C21:0, 12.5% of C23:0, and 7.6% of C25:0. The same procedure was carried out with 10 mM stock solutions of orcinol, α-tocopherol, and butylated hydroxytoluene (BHT) and all treatments were dried under a stream of nitrogen. Ethanol (1.0 mL) was added to the dried treatments (and a control treatment containing no antioxidant) and mixed with 10 g of melted ISO. The antioxidant activity of each treatment was tested at 153 μmol because this corresponds to 500 ppm of C21:0 in the final cracker which is a typical antioxidant concentration used in bakery applications.\n(§2) Antioxidant-treated ISO was melted at 90° C. for 10 minutes and mixed in a stand mixer (KSM95, KitchenAid, Benton Harbor, Mich., U.S.) using a beater blade for 1 minute (speed 2). Sifted flour, salt, and baking soda were added and mixed using a beater blade for 1 minute (speed 2). Water was added and mixed using a dough hook for 1 minute (speed 2). The additional flour was sprinkled onto the surface of a baking mat and incorporated into the dough by kneading by hand (30 folds). The dough was flattened by passing it through a pasta roller (KPSA, KitchenAid, Benton Harbor, Mich., U.S.) twice (thickness setting 2). The sheeted dough was cut into 2.5 cm×2.5 cm crackers and baked on an ungreased baking sheet for 9 minutes at 163° C. (FD 53-UL, Binder, Tuttlingen, Germany). After cooling to room temperature, crackers were coarsely crumbled using a mortar and pestle and weighed (0.5 g) into 10 mL amber glass headspace vials (Supelco Analytical, Bellefonte, Pa., U.S.), sealed with stainless steel screw caps with PTFE/silicone septa (Supelco Analytical, Bellefonte, Pa., U.S.), and allowed to autoxidize at 55° C. in the absence of light for up to 160 days. Crackers were analyzed for lipid hydroperoxides, headspace hexanal, and AR loss every 5 days for day 0-50, every 10 days for day 51-100, and every 20 days for the remainder of the storage time.\nLipid hydroperoxides were determined according to the method described by Shantha & Decker (1994) with slight modifications. Cracker samples (0.1 g) were finely ground using a mortar and pestle and mixed with 5.0 mL chloroform/methanol (2:1 (v/v)) by vortexing (10 seconds, 3 times). The hydroperoxide-containing lipid fraction was extracted and isolated by centrifugation at 2500×g for 10 minutes (Centrifuge 5702, A-4-38 Rotor, Eppendorf, Hamburg, Germany). To this extract (1.0 mL), 16.7 μL of an iron chloride solution (prepared by mixing 50 mL 66 mM FeSO4 in water with 50 mL 38 mM BaCl2 in 0.4 N HCl) was added followed by 16.7 μL of ammonium thiocyanate (3.9 M in water), and allowed to react at room temperature for 20 minutes. The absorbance of the samples was measured at 500 nm (GENESYS 180 UV-Vis Spectrophotometer, Thermo Fisher Scientific, Waltham, Mass., U.S.) and lipid hydroperoxides were quantified based on a standard curve prepared using cumene hydroperoxide.\nIndividual AR homologues (C17:0, C19:0, C21:0, C23:0, C25:0) were added separately and as a mixture (AR Mix) to ISO and subsequently incorporated into the cracker samples. The antioxidant activities of the AR homologues in crackers were compared to orcinol (a water-soluble AR), conventional antioxidants (i.e., α-tocopherol, BHT), and a control treatment (i.e., no added antioxidant). The crackers were allowed to autoxidize in the absence of light and primary (i.e., lipid hydroperoxides) and secondary products (i.e., headspace hexanal) of lipid oxidation were measured as a function of time."}, "[2]": {"assay": "Antioxidant activity in the low-moisture model cracker system (overall lipid oxidation study)", "details": "153 μmol antioxidant", "experimental": "Based on the concentrations of the individual AR stock solutions previously determined, an appropriate volume, containing 153 μmol of the respective individual AR homologue, was measured into plastic centrifuge tubes to prepare individual AR homologue treatments. […] The same procedure was carried out with 10 mM stock solutions of orcinol, α-tocopherol, and butylated hydroxytoluene (BHT) and all treatments were dried under a stream of nitrogen. Ethanol (1.0 mL) was added to the dried treatments (and a control treatment containing no antioxidant) and mixed with 10 g of melted ISO. […] Antioxidant-treated ISO was melted at 90° C. for 10 minutes and mixed in a stand mixer (KSM95, KitchenAid, Benton Harbor, Mich., U.S.) using a beater blade for 1 minute (speed 2). […] flour, salt, and baking soda were added and mixed using a beater blade for 1 minute (speed 2). Water was added and mixed using a dough hook for 1 minute (speed 2). The additional flour was sprinkled onto the surface of a baking mat and incorporated into the dough by kneading by hand (30 folds). The dough was flattened by passing it through a pasta roller (KPSA, KitchenAid, Benton Harbor, Mich., U.S.) twice (thickness setting 2). The sheeted dough was cut into 2.5 cm×2.5 cm crackers and baked on an ungreased baking sheet for 9 minutes at 163° C. (FD 53-UL, Binder, Tuttlingen, Germany). […] Individual AR homologues (C17:0, C19:0, C21:0, C23:0, C25:0) were added separately and as a mixture (AR Mix) to ISO and subsequently incorporated into the cracker samples. The antioxidant activities of the AR homologues in crackers were compared to orcinol (a water-soluble AR), conventional antioxidants (i.e., α-tocopherol, BHT), and a control treatment (i.e., no added antioxidant). The crackers were allowed to autoxidize in the absence of light and primary (i.e., lipid hydroperoxides) and secondary products (i.e., headspace hexanal) of lipid oxidation were measured as a function of time."}, "[3]": {"details": "oxygen radical absorbance capacity assay, earlier work of the Inventors; cited from earlier work"}, "[4]": {"assay": "Formation of headspace hexanal in antioxidant-treated crackers during storage", "experimental": "as §1, §2\nCracker samples were prepared for GC-MS analysis by adding 10 μL of 100 mg/L 2-methypentanal (internal standard) in methanol directly through the capped headspace vial's septum. The GC system consisted of a 7890B gas chromatograph (Agilent, Santa Clara, Calif., U.S.) with sample introduction by means of an autosampler (Robotic MultiPurpose Sampler, Gerstel, Mülheim, Germany). Samples were equilibrated for 10 minutes at 55° C. with continuous shaking. A 50/30 μm divinylbenzene/carboxen/polydimethylsiloxane (DVB/CAR/PDMS) (1 cm) (Supelco Analytical, Bellefonte, Pa., U.S.) solid phase microextraction (SPME) fiber was exposed to the sample headspace for 2 minutes at 55° C. The SPME fiber was desorbed for 6 minutes at 250° C. in the injection port equipped with a SPME inlet liner at a split ratio of 10:1. Volatile aldehydes were separated on a Rtx-WAX capillary column (30 m, 0.25 mm i.d., 0.25 μm film thickness) (Restek, Bellefonte, Pa., U.S.). An oven program was followed to separate the different volatile aldehydes at a constant helium carrier gas flow rate of 1.22 mL/min. The oven program was as follows: hold at 40° C. for 1 minute; ramp at 10° C./min to 75° C.; ramp at 100° C./min to 250° C.; hold at 250° C. for 1.75 minutes. Detection and quantification of hexanal and 2-methylpentanal was achieved using a single quadrupole mass spectrometer (5977B, Agilent, Santa Clara, Calif., U.S.) coupled to the GC. The MS transfer line, quadrupole, and detector temperatures were set to 250° C., 230° C., 150° C., respectively. Mass spectra were collected in electron impact mode."}},
  "data": [
    {"smiles": "Cc1cc(O)cc(O)c1", "note": "[orcinol]", "values": [
      {"measurement": "course of lipid hydroperoxide formation after the lag phase (in words)", "setting": "[1]; 153 μmol antioxidant in crackers, 55° C., FIG. 1", "result": "oxidizing most rapidly"},
      {"measurement": "storage day at which lipid hydroperoxide concentration began to increase (end of lag phase)", "setting": "[1]; 153 μmol antioxidant in crackers, autoxidized at 55° C. in the absence of light, FIG. 1", "result": 25, "unit": "days"},
      {"measurement": "order of induction periods for lipid hydroperoxides", "setting": "[1]; time to reach threshold [Hydroperoxides]=0.1 mM/g cracker, FIG. 3A", "result": "AR Mix≈C23:0>C25:0>(C21:0≈C19:0)>(C19:0≈BHT)>(BHT≈orcinol)>(orcinol≈C17:0)>control>>α-tocopherol"},
      {"measurement": "antioxidant activity in the low-moisture model cracker system (in words)", "setting": "[2]", "result": "weak to no antioxidant activity"},
      {"measurement": "radical scavenging capacity", "setting": "[3]", "result": "strongest antiradical activity"},
      {"measurement": "activity concluded from headspace hexanal formation", "setting": "[4]; 153 μmol antioxidant in crackers, 55° C., compared to control crackers", "result": "neither prooxidant or antioxidant activity"},
      {"measurement": "storage day at which headspace hexanal began to increase (end of lag phase)", "setting": "[4]; 153 μmol antioxidant in crackers, autoxidized at 55° C. in the absence of light, FIG. 2", "result": "> 35", "unit": "days"},
      {"measurement": "order of induction periods for headspace hexanal", "setting": "[4]; time to reach threshold [Hexanal]=1.0 mM/g cracker, FIG. 3B", "result": "C23:0>BHT>C25:0 AR Mix>C21:0>C19:0≈C17:0>control≈orcinol>>α-tocopherol"}
    ]}
  ]
}
